In PubChem BioAssay AID179 (DTP/NCI, 2004) one finds EC50, IC50 and outcome data, which are given here for 73 molecules.

Calls of active or inactive are those of the source.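 Rule for the calls: active = compounds giving half or more protection of infected cells from virus-caused growth loss, again on retest; inactive = the rest.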

This assay concerns CEM cells HIV-1 protection, formazan growth assay. Kind of assay: NCI AIDS Antiviral Assay. The following applies: for IC50: measured here: growth of uninfected CEM cells. The method in brief: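 Category rules: moderately active means at least 50% protection on retest, and confirmed active means 100% protection reproducibly. The underlying data came from a formazan growth assay in HIV-1-infected CEM cells.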

A word on the EC50: it is the midpoint of the concentration-response curve. The term IC50 denotes the concentration that gives 50% inhibition. Regarding `O=C(/C=C/c1ccccc1)Oc1cccc2cccnc12`, the EC50 was over 200 µM and the IC50 is 3.63 µM.
With `COc1ccc2c(c1O)C13CCN(C)C(C2)C1CCC1(C3)OCCO1` (stereo not drawn), the EC50 is over 380 µM and the IC50 was determined as 204 µM.
On to `CCC(C)/C(=C\C(=O)O)C(=O)O` (stereo not drawn), for which the EC50 was over 200 µM and the concentration for half-maximal inhibition (IC50) is over 200 µM.
Consider `Cc1ccc(-n2c(CSc3ccc(Cl)cc3)nnc2SCc2nc3ccccc3[nH]2)cc1`, for which the EC50 is over 200 µM and the half-inhibitory concentration (IC50) is 120 µM.
The like results for `CCCCCC(C/C=N/N(C)C)C(O)(C(F)(F)F)C(F)(F)F` (stereo not drawn) were, in that order, over 200 µM and 14.5 µM.
The like results for `O=S1(=O)CC2(N3CCCCC3)CCCCC21` (stereo not drawn) were, in that order, over 891 µM and 219 µM.
The matching figures for `C/C(=N/O)c1sc(-c2nc(C)c(/C(C)=N\O)s2)nc1C`: over 115 µM and over 115 µM.
Turning to `NC1(S(=O)(=O)O)c2ccccc2-c2ccccc21`, the EC50 is over 200 µM and the IC50 is 151 µM.
As for `CS(=O)(=O)c1ccc(/C=C2/C=Cc3ccccc32)cc1`, the EC50 was over 25.7 µM and the IC50 was over 25.7 µM.
As to `CCOC(=O)/C=C/n1c2ccccc2c(=O)c2ccccc21`, the EC50 is over 9.33 µM and the half-maximal inhibitory concentration (IC50) was over 9.33 µM.
On to `CC(=O)OC1CCC2(C)C(C1)CC(OC(C)=O)C1C2CC(OC(C)=O)C2(C)C(C(C)CC=C(c3ccccc3)c3ccccc3)CCC12` (stereo not drawn), for which the EC50 is over 7.94 µM and the IC50 was 5.01 µM.
The matching figures for `C1=Cc2cccc3occ(c23)C=C1`: over 200 µM and 28.8 µM.
The matching figures for `CC(=O)N1C(=O)C2(Nc3cccnc3N2)c2ccccc21` (stereo not drawn): over 100 µM and over 100 µM.
The matching figures for `CCC1(c2ccc(N3C(=O)c4cccc5cc([N+](=O)[O-])cc(c45)C3=O)cc2)CCC(=O)NC1=O` (stereo not drawn): over 151 µM and 13.5 µM.
As to `CCOC(=O)C(C)(c1cn(C)c2ccccc12)c1cn(C)c2ccccc12`, the outcome was inactive.
As to `COc1cc(/C=N\NC(=O)C[N+](C)(C)C)cc(OC)c1OC`, the EC50 was over 200 µM and the half-maximal inhibitory concentration (IC50) was over 200 µM.
Consider `COC(=O)C1C(=O)CC(C)(O)C(C(=O)OC)C1c1ccc(N(C)C)cc1` (stereo not drawn), for which the EC50 is over 200 µM and the IC50 is over 200 µM.
Regarding `CCc1cccc(C(C)(C)C)c1NC(=S)N/C=C(/C#N)C(N)=O`, the EC50 is over 200 µM and the half-inhibitory concentration (IC50) amounted to 151 µM.
As to `C/C=C(/CCCCCOCOCCOC)[Si](C)(C)C`, the EC50 is over 324 µM and the IC50 was over 324 µM.
As for `COC(=O)C(=O)C(/C(=N/N)C(=O)Nc1ccccc1C(N)=O)c1nc2ccc([N+](=O)[O-])cc2[nH]c1=O` (stereo not drawn), the EC50 was over 501 µM and the IC50 came out at 204 µM.
For `COc1ccccc1NC(=O)CC(=O)N1N=C(c2ccccc2)C(N=Nc2ccc(Cl)cc2)C1=O` (stereo not drawn), the EC50 was over 74.1 µM and the concentration for half-maximal inhibition (IC50) came to 64.6 µM.
In the case of `O=C1C(Cl)=C(O)C2(Cl)C(Cl)=C(Cl)C12Cl` (stereo not drawn), the outcome was inactive.
Consider `COC(=O)CC1NC(=O)[C@@H]1C(C)O` (stereo partly drawn), for which the EC50 is over 251 µM and the half-maximal inhibitory concentration (IC50) was over 251 µM.
With `O=[N+]([O-])c1ccc(Cl)c(C=NC23CC4CC(CC(C4)C2)C3)c1`, the EC50 is over 200 µM and the IC50 turned out to be 3.89 µM.
The matching figures for `COc1ccc(-c2cc(-c3ccccc3)c3c(n2)-c2ccccc2NC(=O)C3)cc1`: over 200 µM and 38 µM.
Regarding `CCOC(=O)C1(C(=O)OCC)NC(=O)CC1CC` (stereo not drawn), the result was inactive.
Take `COc1cc(C2c3cccc4cccc(c34)C3CCC(=O)N32)cc(O)c1O` (stereo not drawn): the EC50 is 3.02 µM and the concentration for half-maximal inhibition (IC50) was determined as 9.33 µM.
For the molecule `O=c1c2cc([N+](=O)[O-])ccc2n2n1Cc1ccccc1CC2`, the EC50 is over 200 µM and the IC50 was over 200 µM.
Regarding `CCC(C#N)NC(=O)NC(C#N)CC` (stereo not drawn), the EC50 was over 200 µM and the IC50 came to 107 µM.
The like results for `CCOC(=O)c1ccc(CSc2ccc(N)cc2)cc1` were, in that order, over 457 µM and 240 µM.
As for `O=c1ccc2cc3ccoc3c(OCCCCCCCCCCCCOc3c4occc4cc4ccc(=O)oc34)c2o1`, the EC50 is over 38.9 µM and the IC50 is over 38.9 µM.
Take `COC(=O)/C([Se]c1c(C)cc(C)cc1C)=C(/[Se]c1c(C)cc(C)cc1C)C(=O)OC`: the outcome was inactive.
On to `CC(=O)NC(CCC(=O)c1ccc(Oc2ccccc2)cc1)C(=O)O` (stereo not drawn), for which the EC50 was over 200 µM and the IC50 is over 200 µM.
With `CS1(=O)=N/C(=N\C(=O)Nc2ccccc2)c2ccccc21` (stereo not drawn), the outcome was inactive.
For `C1=C2CN3CCC45c6ccccc6N6CCC(OC1)C(C2CC34)C65` (stereo not drawn), the EC50 is over 776 µM and the IC50 came to 302 µM.
The matching figures for `COc1ccc(COCC[C@H](C)OC2OC(CO)C(O)C(O)C2O)cc1` (stereo partly drawn): over 200 µM and over 200 µM.
The matching figures for `O=[N+]([O-])c1cccc(S(=O)(=O)N/N=C/c2cc(I)cc([N+](=O)[O-])c2O)c1`: over 363 µM and 63.1 µM.
As for `CC(NC1=NCCO1)c1ccccc1Cl` (stereo not drawn), the outcome was inactive.
As for `CN1CCC(O)(C(C)(C)C)CC1`, the EC50 was over 200 µM and the concentration for half-maximal inhibition (IC50) is over 200 µM.
Turning to `CCOc1ccc(NC(=O)C(=O)CC(=O)c2c(C)n([O-])c3ccccc3[n+]2=O)cc1`, the EC50 was over 6.61 µM and the half-inhibitory concentration (IC50) is over 6.61 µM.
With `COc1ccc(C2C(C)C(=O)C(C)C(c3ccc(OC)cc3)N2N=O)cc1` (stereo not drawn), the EC50 is over 19.5 µM and the half-inhibitory concentration (IC50) is over 19.5 µM.
Turning to `Oc1ccccc1C=NCCN=Cc1ccccc1O.[CH3][Sn]([CH3])([Cl])[Cl]`, the outcome was inactive.
Consider `Clc1ccc(C[P+](c2ccccc2)(c2ccccc2)c2ccccc2)cc1Cl`, for which the EC50 was over 200 µM and the concentration for half-maximal inhibition (IC50) amounted to 3.02 µM.
In the case of `CCOC(=O)[C@H]1Nc2c(cccc2[N+](=O)[O-])[C@H]2OCC[C@@H]12`, the EC50 was over 447 µM and the half-maximal inhibitory concentration (IC50) is over 447 µM.
Turning to `CC(C)(C)C(=O)OCC(COC(=O)C(C)(C)C)[N+](=O)[O-]`, the result was inactive.
Consider `C=CCNC(=O)NC1=CSC2=NC(=O)C3(NN12)c1ccccc1-c1ccccc13`, for which the EC50 is over 200 µM and the half-inhibitory concentration (IC50) worked out at 58.9 µM.
The matching figures for `C=CCc1cccc2cc(C(=O)Nc3nc(C45CC6CC(CC(C6)C4)C5)cs3)c(=O)oc12`: over 100 µM and over 100 µM.
For the molecule `COc1ccc(/C(=N/OCCCC(=O)O)c2cccs2)cc1`, the result was inactive.
Consider `CN(CCNC(=O)c1cn(C)c2c1ccc1ccccc12)CCNC(=O)c1cn(C)c2c1ccc1ccccc12`, for which the EC50 is over 200 µM and the IC50 was determined as 3.09 µM.
The matching figures for `O=C(NCc1ccccc1)/C(=C/c1ccccc1)NC(=O)c1ccccc1`: over 200 µM and over 200 µM.
The like results for `C[N+]1(CC(O)(O)C(F)F)CCOCC1` were, in that order, over 200 µM and over 200 µM.
As to `CC1=C(O)/C(=C/C(C)CCC/C(C)=C/C=C/C(C)CCCc2ccoc2)OC1=O` (stereo not drawn), the outcome was inactive.
Consider `CC(C)(C)[Si](C)(C)OCC1OC(n2cnc3c(=O)[nH]c(NC(=O)c4ccccc4)nc32)C(O[Si](C)(C)C(C)(C)C)C1O[Si](C)(C)C(C)(C)C` (stereo not drawn), for which the EC50 is over 200 µM and the 50% inhibitory concentration (IC50) amounted to 9.12 µM.
The matching figures for `COc1ccc2[nH]c3c4c(ccc3c2c1)C(=O)C=CC4=O`: over 93.3 µM and 4.47 µM.
As for `CCOP(=O)(Nc1cccc(Cl)c1)OCC`, the EC50 is over 955 µM.
For the molecule `N#CSC1=C(SC#N)C(=O)c2ccccc2C1=O`, the EC50 was over 200 µM and the half-inhibitory concentration (IC50) was determined as 12.3 µM.
The like results for `Cn1c(=O)cc(NCCc2ccccc2)[nH]c1=O` were, in that order, over 200 µM and 17.4 µM.
The matching figures for `CC(=O)c1c(-c2ccco2)c(C#N)c(=S)n(C2OC(CO)C(O)C(O)C2O)c1-c1ccccc1` (stereo not drawn): over 200 µM and 75.9 µM.
For `CCOC(=O)C1=C(Nc2ccc(Br)cc2)OCC1=O`, the result was inactive.
`COC(C)(C)[C@@H]1CCCN1C1=C(C)C(=O)OC1`: the EC50 is over 200 µM and the IC50 is over 200 µM.
Regarding `COc1cc(C(=O)[O][Sn]([c]2ccccc2)([c]2ccccc2)[c]2ccccc2)cc(OC)c1OC`, the EC50 was over 200 µM and the IC50 was found to be 0.0631 µM.
Take `Cc1ccc2nc(NC(=O)C(=O)C(C(=O)c3ccc4ccccc4c3)C3OC(=O)c4ccccc43)sc2c1` (stereo not drawn): the EC50 was over 50.1 µM and the concentration for half-maximal inhibition (IC50) was 25.7 µM.
The matching figures for `CCN(CC)CCNc1ccc(CO)c2oc3cc(Cl)ccc3c(=O)c12`: over 25.1 µM and 4.57 µM.
As to `O=C(NC(=S)Nc1ccccn1)c1ccccc1`, the EC50 is over 200 µM and the IC50 came out at 135 µM.
The matching figures for `CCCCCCC(=O)N1SC(NC(=O)OC)=Nc2ccccc21`: over 77.6 µM and 10.2 µM.
As to `COc1cc2c(cc1O)C1C(O)C(O)C=C3CCN(C2)C31` (stereo not drawn), the outcome was inactive.
Turning to `Cc1ccc(S(=O)(=O)n2cc(C=O)c(-c3cn(S(=O)(=O)c4ccc(C)cc4)cc3-c3cn(S(=O)(=O)c4ccc(C)cc4)cc3C=O)c2)cc1`, the EC50 is over 200 µM and the IC50 was found to be 19.5 µM.
The like results for `Cc1ccc(N=C2C(c3ccccc3)=C(SC3=C(c4ccccc4)C(=Nc4ccc(C)cc4)c4ccccc43)c3ccccc32)cc1` were, in that order, over 200 µM and 174 µM.
Take `CS(=O)(=O)OCCN1CCC2(CC1)SSC1(CCN(CCOS(C)(=O)=O)CC1)S2`: the EC50 is over 200 µM and the half-inhibitory concentration (IC50) is 28.2 µM.
The matching figures for `CCOC(=O)C(=O)C1C(=O)Nc2ccccc21` (stereo not drawn): over 398 µM and 204 µM.
For the molecule `C=C1CN(S(=O)(=O)c2ccc(C)cc2)CCCN(Cc2ccc[nH]2)CCCN(S(=O)(=O)c2ccc(C)cc2)C1`, the EC50 was over 200 µM and the IC50 turned out to be 14.5 µM.
The matching figures for `C#CCOC(=O)C=[N+]=[N-]`: over 200 µM and over 200 µM.
The like results for `C1=C[C@@H]2c3ccc4cnccc4c3NC[C@@H]2C1` were, in that order, over 589 µM and 36.3 µM.
